Measurements: publication PMC11647725, “Discovery of 4-(5-Membered)Heteroarylether-6-methylpicolinamide Negative Allosteric Modulators of Metabotropic Glutamate Receptor Subtype 5” (ACS Medicinal Chemistry Letters, 2024)

Experiments:
[1] = biological target: Muscarinic M3 (Homo sapiens, UniProt P20309); assay: Lead Profiling Screen, Eurofins Panlabs; format: binding; conditions: Muscarinic M3, hum, read-out: % inh at 10 μM
[2] = test system: Thyroid Hormone; assay: Lead Profiling Screen, Eurofins Panlabs; format: binding; conditions: rat
[3] = biological target: Opiate δ1 (OP1, DOP) (Homo sapiens, UniProt P41143); assay: Lead Profiling Screen, Eurofins Panlabs; format: binding; conditions: hum, read-out: % inh at 10 μM
[4] = test system: Potassium Channel [KATP]; assay: Lead Profiling Screen, Eurofins Panlabs; format: binding, hamster; conditions: ham
[5] = biological target: T1, CYP 3A4 (Homo sapiens, UniProt P08684); assay: P450 inhibition in pooled human liver microsomes; format: in vitro ADME; conditions: pooled HLM, NADPH, CYP-specific probe substrates; listed as VU6043653
T1 construct: from tissue; host or cells: pooled human liver microsomes (per the earlier reading)
T1 sequence (P08684 whole entry): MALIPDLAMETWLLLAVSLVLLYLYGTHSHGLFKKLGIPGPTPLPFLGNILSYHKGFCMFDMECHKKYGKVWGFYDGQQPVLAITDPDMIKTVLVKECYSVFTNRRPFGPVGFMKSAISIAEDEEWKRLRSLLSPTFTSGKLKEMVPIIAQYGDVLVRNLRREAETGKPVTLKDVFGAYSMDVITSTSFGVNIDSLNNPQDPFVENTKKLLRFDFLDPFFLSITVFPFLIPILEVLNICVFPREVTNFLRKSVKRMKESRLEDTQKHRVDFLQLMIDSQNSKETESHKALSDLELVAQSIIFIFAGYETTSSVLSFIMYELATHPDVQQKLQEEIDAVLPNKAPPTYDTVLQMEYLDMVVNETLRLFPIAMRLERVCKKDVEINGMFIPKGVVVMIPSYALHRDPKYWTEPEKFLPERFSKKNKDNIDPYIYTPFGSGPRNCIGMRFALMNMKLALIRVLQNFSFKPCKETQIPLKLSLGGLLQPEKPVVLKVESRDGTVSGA

[6] = biological target: Calcium Channel N-Type (Rattus norvegicus, UniProt Q02294); assay: Lead Profiling Screen, Eurofins Panlabs; format: binding; conditions: read-out: % inh at 10 μM
Sequence of Calcium Channel N-Type (Q02294 whole entry): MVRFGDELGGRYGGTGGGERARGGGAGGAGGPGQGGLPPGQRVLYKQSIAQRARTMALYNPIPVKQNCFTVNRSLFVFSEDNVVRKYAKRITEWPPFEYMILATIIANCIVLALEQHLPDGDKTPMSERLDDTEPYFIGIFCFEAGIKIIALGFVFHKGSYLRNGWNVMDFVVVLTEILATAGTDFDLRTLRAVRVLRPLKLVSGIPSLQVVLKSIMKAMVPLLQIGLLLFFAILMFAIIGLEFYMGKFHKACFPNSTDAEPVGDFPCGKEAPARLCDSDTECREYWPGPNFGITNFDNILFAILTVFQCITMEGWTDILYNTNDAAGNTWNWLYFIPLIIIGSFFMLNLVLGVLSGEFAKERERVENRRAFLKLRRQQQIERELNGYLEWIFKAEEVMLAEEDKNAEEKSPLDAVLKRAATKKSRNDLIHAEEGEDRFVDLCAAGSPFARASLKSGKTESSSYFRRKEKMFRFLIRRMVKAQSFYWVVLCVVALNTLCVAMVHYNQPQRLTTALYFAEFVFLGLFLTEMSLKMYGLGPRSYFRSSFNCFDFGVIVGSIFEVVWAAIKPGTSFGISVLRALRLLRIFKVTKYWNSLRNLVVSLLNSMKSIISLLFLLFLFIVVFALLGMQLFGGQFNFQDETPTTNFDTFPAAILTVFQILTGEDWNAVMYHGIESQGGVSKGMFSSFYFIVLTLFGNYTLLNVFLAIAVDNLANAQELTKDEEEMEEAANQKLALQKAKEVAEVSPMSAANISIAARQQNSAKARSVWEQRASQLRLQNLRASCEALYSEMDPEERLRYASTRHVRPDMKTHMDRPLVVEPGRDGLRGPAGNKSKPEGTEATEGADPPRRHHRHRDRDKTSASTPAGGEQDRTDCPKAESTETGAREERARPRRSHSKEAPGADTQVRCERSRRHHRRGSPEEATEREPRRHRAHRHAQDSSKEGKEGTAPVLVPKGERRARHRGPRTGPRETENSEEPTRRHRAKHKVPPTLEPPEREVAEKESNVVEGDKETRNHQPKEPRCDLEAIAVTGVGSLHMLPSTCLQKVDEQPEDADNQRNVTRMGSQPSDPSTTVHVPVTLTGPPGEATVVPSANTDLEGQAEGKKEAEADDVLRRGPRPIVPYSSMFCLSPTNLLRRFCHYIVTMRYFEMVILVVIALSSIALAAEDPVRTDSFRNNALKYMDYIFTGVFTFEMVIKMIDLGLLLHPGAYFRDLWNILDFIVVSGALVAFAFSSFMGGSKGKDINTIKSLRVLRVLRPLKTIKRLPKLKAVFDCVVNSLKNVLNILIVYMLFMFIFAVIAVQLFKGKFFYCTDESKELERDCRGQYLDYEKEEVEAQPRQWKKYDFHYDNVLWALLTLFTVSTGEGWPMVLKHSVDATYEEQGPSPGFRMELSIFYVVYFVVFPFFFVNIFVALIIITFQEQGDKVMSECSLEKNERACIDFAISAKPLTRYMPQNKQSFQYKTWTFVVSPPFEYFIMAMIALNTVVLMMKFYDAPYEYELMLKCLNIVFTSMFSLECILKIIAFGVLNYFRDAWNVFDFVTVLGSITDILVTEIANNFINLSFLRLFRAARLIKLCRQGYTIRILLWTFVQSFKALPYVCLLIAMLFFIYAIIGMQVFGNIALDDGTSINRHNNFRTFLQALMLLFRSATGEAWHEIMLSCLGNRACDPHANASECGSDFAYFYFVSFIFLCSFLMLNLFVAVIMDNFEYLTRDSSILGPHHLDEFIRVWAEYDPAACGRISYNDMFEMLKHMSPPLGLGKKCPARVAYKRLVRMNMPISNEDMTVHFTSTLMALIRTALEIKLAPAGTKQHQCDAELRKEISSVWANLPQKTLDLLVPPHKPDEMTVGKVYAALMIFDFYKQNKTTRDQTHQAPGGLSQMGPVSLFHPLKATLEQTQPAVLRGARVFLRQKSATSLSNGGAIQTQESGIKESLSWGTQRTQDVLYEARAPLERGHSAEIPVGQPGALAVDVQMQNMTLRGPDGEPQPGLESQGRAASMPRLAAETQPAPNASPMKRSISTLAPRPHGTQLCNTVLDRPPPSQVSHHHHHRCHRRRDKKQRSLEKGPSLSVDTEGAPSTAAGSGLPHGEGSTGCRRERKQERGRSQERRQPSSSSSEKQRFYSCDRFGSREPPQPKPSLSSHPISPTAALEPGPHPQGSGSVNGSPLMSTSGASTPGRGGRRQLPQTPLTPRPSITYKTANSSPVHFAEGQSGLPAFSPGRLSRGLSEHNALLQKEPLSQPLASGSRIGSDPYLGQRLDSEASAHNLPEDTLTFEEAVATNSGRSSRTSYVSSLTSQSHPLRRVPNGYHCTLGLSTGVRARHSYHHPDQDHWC
Text: (§1) Nonetheless, as a non-aryl/heterobiaryl acetylene mGlu5 NAM with an encouraging in vivo rodent PK profile, we wished to further assess VU6043653 as a novel chemotype. Therefore, we compared metabolites in multiple species to better understand species differences in clearance and metabolism. […] Consistent with the high plasma clearance observed in dogs, high turnover was observed more so in dog hepatocytes than any other species tested (see the Supporting Information for additional details and results). To further evaluate our novel chemotype, the off-target and safety/toxicity profiles for this compound were further investigated.
(§2) Table S2. Lead Profiling Screen – Eurofins Panlabs for VU6043653.
(§3) Assay Name Species % inh at 10 μM […]

[7] = test system: Glutamate, NMDA, Phencyclidine; assay: Lead Profiling Screen, Eurofins Panlabs; format: binding; conditions: rat
Text: as §1, §2, §3

[8] = test system: Glutamate, Kainate; assay: Lead Profiling Screen, Eurofins Panlabs; format: binding; conditions: rat
Text: as §1, §2, §3

[9] = test system: Calcium Channel L-Type, Benzothiazepine; assay: Lead Profiling Screen, Eurofins Panlabs; format: binding; conditions: rat
Text: as §1, §2, §3

[10] = biological target: Glutamate, NMDA, Glycine (Rattus norvegicus, UniProt P35439); assay: Lead Profiling Screen, Eurofins Panlabs; format: binding; conditions: read-out: % inh at 10 μM
Sequence of Glutamate, NMDA, Glycine (P35439 394-800 limits assumed): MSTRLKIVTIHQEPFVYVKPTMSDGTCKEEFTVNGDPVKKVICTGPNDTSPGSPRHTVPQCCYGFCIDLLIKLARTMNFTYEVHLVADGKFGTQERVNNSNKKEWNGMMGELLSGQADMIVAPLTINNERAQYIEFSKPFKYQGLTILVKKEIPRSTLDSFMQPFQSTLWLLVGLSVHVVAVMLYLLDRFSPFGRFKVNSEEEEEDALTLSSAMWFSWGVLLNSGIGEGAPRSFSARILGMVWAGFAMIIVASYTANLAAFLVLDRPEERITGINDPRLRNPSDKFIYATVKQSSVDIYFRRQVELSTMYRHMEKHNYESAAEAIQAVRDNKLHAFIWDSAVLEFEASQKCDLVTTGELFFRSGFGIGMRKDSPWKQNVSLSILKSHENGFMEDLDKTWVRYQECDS
Text: as §1, §2, §3

[11] = test system: GABAA, Muscimol, Central; assay: Lead Profiling Screen, Eurofins Panlabs; format: binding; conditions: rat
Text: as §1, §2, §3

[12] = test system: Calcium Channel L-Type, Dihydropyridine; assay: Lead Profiling Screen, Eurofins Panlabs; format: binding; conditions: rat
Text: as §1, §2, §3

[13] = biological target: Epidermal Growth Factor (EGF) (Homo sapiens, UniProt P00533); assay: Lead Profiling Screen, Eurofins Panlabs; format: binding; conditions: hum, read-out: % inh at 10 μM
Text: as §1, §2, §3

[14] = test system: Glutamate, NMDA, Agonism; assay: Lead Profiling Screen, Eurofins Panlabs; format: binding; conditions: rat
Text: as §1, §2, §3

[15] = test system: GABAA, Flunitrazepam, Central; assay: Lead Profiling Screen, Eurofins Panlabs; format: binding; conditions: rat
Text: as §1, §2, §3

[16] = biological target: Nicotinic Acetylcholine α1, Bungarotoxin (Homo sapiens, UniProt P02708+P07510+Q07001); assay: biochemical; format: binding; conditions: read-out: % inh at 10 μM
[17] = biological target: Transporter, Norepinephrine (NET) (Homo sapiens, UniProt P23975); assay: Lead Profiling Screen, Eurofins Panlabs; format: binding; conditions: hum, read-out: % inh at 10 μM
[18] = biological target: Prostanoid EP4 (Homo sapiens, UniProt P35408); assay: Lead Profiling Screen, Eurofins Panlabs; format: binding; conditions: Prostanoid EP4, hum, read-out: % inh at 10 μM
[19] = test system: Transporter, GABA; assay: Lead Profiling Screen, Eurofins Panlabs; format: binding; conditions: rat
[20] = Binding in brain homogenate from rat (equilibrium dialysis); format: in vitro ADME; conditions: rat, brain homogenate, rat brain homogenates, read-out: Rat fu,brain
Method: transferred to the corresponding wells of new daughter plates (96-shallow-well, V bottom) containing water (Milli-Q, 60 µL/well), and the plates were sealed in preparation for LC-MS/MS analysis (see below). fu was calculated as (analyte to IS MS peak area ratio from Trans-buffer side) / (analyte to IS MS peak area ratio from Cis-plasma side). Mean values for each species were calculated from 3 replicates.
Binding in brain homogenate from rat.
Determination of fraction unbound (f u) in brain homogenate from rat was conducted using the same methodology and procedure than described for plasma protein binding assay with the following modifications: 1) a final compound concentration of 1 μM was used, 2) naïve rat brains were homogenized in DPBS (1:3 composition of brain: DPBS, w/w) using a Mini-Bead Beater™ machine in order to obtain […]
The diluted fraction unbound (f u2) in brain was calculated as (analyte to IS MS peak area ratio from Trans-buffer side) / (analyte to IS MS peak area ratio from Cis-brain homogenate side). Undiluted fraction unbound for the brain was calculated using the following equation: […]
Mean values for each species were calculated from 3 replicates. […]

[21] = biological target: Muscarinic M1 (Homo sapiens, UniProt P11229); assay: Lead Profiling Screen, Eurofins Panlabs; format: binding; conditions: Muscarinic M1, hum, read-out: % inh at 10 μM
Sequence of Muscarinic M1 (P11229 whole entry): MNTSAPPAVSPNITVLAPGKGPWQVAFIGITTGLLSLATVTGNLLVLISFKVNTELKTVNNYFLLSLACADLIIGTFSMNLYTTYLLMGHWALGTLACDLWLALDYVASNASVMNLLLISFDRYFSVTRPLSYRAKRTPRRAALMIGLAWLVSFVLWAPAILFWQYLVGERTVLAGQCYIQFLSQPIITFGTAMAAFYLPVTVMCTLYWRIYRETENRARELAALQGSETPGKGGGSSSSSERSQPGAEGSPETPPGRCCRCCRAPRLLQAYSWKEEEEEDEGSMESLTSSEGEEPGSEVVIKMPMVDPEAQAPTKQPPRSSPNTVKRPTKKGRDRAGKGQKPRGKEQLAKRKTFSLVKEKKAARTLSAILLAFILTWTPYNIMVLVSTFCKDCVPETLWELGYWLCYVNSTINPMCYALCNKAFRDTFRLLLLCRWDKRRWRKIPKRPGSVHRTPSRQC

[22] = biological target: Transporter, Dopamine (DAT) (Homo sapiens, UniProt Q01959); assay: Lead Profiling Screen, Eurofins Panlabs; format: binding; conditions: hum, read-out: % inh at 10 μM
[23] = In vivo dog pharmacokinetics; conditions: Dog (beagle)
[24] = biological target: hERG potassium channel (Homo sapiens, UniProt Q12809); assay: Lead Profiling Screen, Eurofins Panlabs; format: binding; conditions: hum, read-out: % inh at 10 μM
Sequence of hERG potassium channel (Q12809 whole entry): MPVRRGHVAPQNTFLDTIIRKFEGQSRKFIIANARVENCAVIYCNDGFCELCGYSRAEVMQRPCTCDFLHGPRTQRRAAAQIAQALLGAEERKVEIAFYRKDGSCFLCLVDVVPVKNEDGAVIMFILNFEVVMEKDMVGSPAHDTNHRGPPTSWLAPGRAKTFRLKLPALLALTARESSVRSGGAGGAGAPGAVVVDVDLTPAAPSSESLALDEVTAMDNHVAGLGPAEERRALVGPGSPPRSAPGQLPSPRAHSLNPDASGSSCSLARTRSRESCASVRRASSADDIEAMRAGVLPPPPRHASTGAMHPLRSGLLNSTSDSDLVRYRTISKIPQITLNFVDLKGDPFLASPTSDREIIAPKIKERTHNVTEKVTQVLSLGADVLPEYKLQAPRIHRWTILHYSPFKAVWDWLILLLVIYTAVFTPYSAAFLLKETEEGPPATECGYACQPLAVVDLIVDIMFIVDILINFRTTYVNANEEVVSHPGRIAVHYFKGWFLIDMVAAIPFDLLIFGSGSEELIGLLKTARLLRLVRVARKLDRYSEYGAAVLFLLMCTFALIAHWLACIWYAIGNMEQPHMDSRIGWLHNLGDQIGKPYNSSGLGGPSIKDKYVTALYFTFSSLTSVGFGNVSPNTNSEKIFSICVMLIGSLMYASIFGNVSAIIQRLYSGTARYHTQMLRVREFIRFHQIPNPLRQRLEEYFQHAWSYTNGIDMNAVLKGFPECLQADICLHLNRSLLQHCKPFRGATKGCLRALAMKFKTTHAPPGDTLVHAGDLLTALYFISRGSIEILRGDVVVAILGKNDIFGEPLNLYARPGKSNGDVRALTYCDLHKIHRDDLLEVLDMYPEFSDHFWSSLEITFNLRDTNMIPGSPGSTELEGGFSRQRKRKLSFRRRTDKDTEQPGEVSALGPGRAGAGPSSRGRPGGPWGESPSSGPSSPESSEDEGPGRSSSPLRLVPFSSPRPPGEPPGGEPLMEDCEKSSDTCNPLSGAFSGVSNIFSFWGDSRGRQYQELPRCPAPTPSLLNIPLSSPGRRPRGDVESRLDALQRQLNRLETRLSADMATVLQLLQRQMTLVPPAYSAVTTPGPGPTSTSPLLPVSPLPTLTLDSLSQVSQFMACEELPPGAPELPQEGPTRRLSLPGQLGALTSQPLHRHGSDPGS

**Q.** Which results are given for `Cc1cc(Oc2cnn(C)c2)cc(C(=O)Nc2ccc(F)cn2)n1` [22iA]?
**A.** inhibition at 10 µM [1]: -15%; % inh at 10 μM [2]: -2%; inhibition at 10 µM [3]: 3%; % inh at 10 μM [4]: 2%; IC50 [5]: ≥ 30 µM; inhibition at 10 µM [6]: -8%; % inh at 10 μM [7]: -4%; % inh at 10 μM [8]: -7%; % inh at 10 μM [9]: 22%; inhibition at 10 µM [10]: -18%; % inh at 10 μM [11]: -5%; % inh at 10 μM [12]: 1%; inhibition at 10 µM [13]: -3%; % inh at 10 μM [14]: 3%; % inh at 10 μM [15]: 0%; inhibition at 10 µM [16]: -12%; inhibition at 10 µM [17]: 63%; inhibition at 10 µM [18]: 8%; % inh at 10 μM [19]: -1%; fraction unbound at 6 h, 1 µM [20]: 0.012; inhibition at 10 µM [21]: -13%; inhibition at 10 µM [22]: 25%; CLp ([23]; IV 0.5 mg/kg): 2.28 L/h/kg; MRT ([23]; IV 0.5 mg/kg): 1.41 h; Vss ([23]; IV 0.5 mg/kg): 3.2 L/kg; t1/2 ([23]; IV 0.5 mg/kg): 1.55 h; AUC0-∞ ([23]; PO 3.0 mg/kg): 0.264 µg·h/mL; Cmax ([23]; PO 3.0 mg/kg): 0.0703 µg/mL; Tmax ([23]; PO 3.0 mg/kg): 0.67 h; %F ([23]; PO 3.0 mg/kg, oral bioavailability): 20%; inhibition at 10 µM [24]: 14%
